Source: publication PMC11394742, “Discovery of Indole–Thiourea Derivatives as Tyrosinase Inhibitors: Synthesis, Biological Evaluation, Kinetic Studies, and In Silico Analysis” (International Journal of Molecular Sciences, 2024)
Several values for one entry are separate records, joined by “and”; a condition that tells them apart may be missing. Equal values may be shown once.

How the values were obtained:
[1] = DPPH free radical-scavenging assay; settings: 0.2 mM DPPH in EtOH, 15 min, room temperature, 515 nm; read-out: SC50 ± SD (DPPH radical scavenging)
Protocol: The DPPH radical-scavenging activity was evaluated using Blois’ method. A 0.2 mM solution of DPPH in ethanol (EtOH) was prepared as the working reagent. Each sample (20 μL) was introduced into a 96-well plate, followed by the addition of 180 μL of the DPPH solution. […] The SC50 value, representing the concentration required to scavenge 50% of the DPPH radicals, was determined for each sample. Each measurement was performed in triplicate, and the mean value was reported. Ascorbic acid served as the positive control throughout the experiment.

mushroom tyrosinase = target: T1, mushroom tyrosinase (Agaricus bisporus, UniProt C7FF04); assay: Tyrosinase inhibition assay; assay type: biochemical; settings: L-tyrosine substrate, 37 °C 10 min, absorbance 490 nm; mean ± SEM
T1 construct: purchased Sigma Chemicals (St. Louis, MO, USA)
T1 sequence (C7FF04 1-392): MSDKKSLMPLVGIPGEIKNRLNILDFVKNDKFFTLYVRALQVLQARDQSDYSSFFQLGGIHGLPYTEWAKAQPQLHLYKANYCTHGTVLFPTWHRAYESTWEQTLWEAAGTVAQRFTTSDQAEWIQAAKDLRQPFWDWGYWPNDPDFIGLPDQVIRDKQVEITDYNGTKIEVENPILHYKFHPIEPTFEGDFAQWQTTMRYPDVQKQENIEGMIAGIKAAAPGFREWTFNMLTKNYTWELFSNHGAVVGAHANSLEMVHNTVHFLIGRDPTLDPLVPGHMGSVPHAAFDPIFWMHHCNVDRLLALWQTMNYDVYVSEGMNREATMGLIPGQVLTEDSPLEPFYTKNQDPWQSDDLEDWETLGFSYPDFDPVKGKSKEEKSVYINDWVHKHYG
Protocol: In the enzymatic assay, a reaction mixture was prepared containing 0.1 M potassium phosphate buffer (pH 6.8), 2 mM L-tyrosine, and 2500 units of tyrosinase. Samples at various concentrations were dispensed as 20 µL aliquots into a 96-well plate. Each well received 130 µL of substrate solution (buffer and L-tyrosine), followed by 5 µL of tyrosinase and 45 µL of buffer solution.

[2] = Stability in aqueous solution (HPLC main peak area); assay type: physicochemical; settings: room temperature, 275 nm
Protocol: Table S1. Gradient elution of the mobile phase for the synthetic compounds using HPLC.
The mobile phase consisted of Solution A (0.1% acetic acid in water) and Solvent B
(acetonitrile), with gradient elution employed throughout the analysis. The flow rate was
Time Solution (A) % Solution (B) %
Table S2. The stability of the synthesized compounds in aqueous solution.
Each compound (2.0 mg) was dissolved in an appropriate volume of water to achieve
an approximate concentration of 1-2 mg/mL. The solutions were then subjected to
ultrasonic treatment, filtered, and analyzed. During stability testing, varying degrees of
To facilitate analysis, these
samples were reconstituted with additional water or treated ultrasonically, filtered, and
absorption at approximately 275 nm, which was selected for detection. The integration
method employed was based on the minimum area approach to accurately determine the
retention time (min) and main peak area (%) of all synthesized compounds. The prepared
samples were stored at room temperature, and their stability in aqueous solution was
evaluated at 0, 2, 4 days, and 2 months using the aforementioned analytical method.
Compounds 0 day 2 day 4 days 2 months RT Area RT Area RT Area RT Area

mTYR = target: T2, mTYR (Agaricus bisporus, UniProt C7FF04); assay: Kinetic mechanism analysis (Lineweaver–Burk plots); assay type: biochemical, mushroom
T2 construct: purchased Sigma Chemicals (St. Louis, MO, USA)
T2 sequence (C7FF04 1-392): as above
Protocol: Due to the potent inhibition of mushroom tyrosinase by compound 4b, kinetic studies were conducted using Lineweaver–Burk double reciprocal plots to elucidate its inhibitory mechanisms. […] concentrations (0 μM, 3 μM, 6 μM, and 12 μM) of the indole derivative 4b in the presence of varying L-tyrosine concentrations (0.1, 0.2, 0.4, 0.6, 0.8, 1 mM) were employed for the kinetic analyses. The Lineweaver–Burk plots generated four distinct lines with different slopes corresponding to each concentration of the derivative. […] Specifically, the KM values were 1.515, 7.846, 15.740, and 23.586 mM at 0, 3, 6, and 12 μM of 4b, respectively.
The kinetic experiment was intended to elucidate the inhibitory behavior of compound 4b against tyrosinase. Four different doses of 4b (0, 3, 6, and 12 µM) were investigated to characterize its inhibition pattern with respect to tyrosinase activity. Various concentrations of L-tyrosine substrate ranging from 0.1 to 1 mM were employed across all experiments. The initial incubation time and reading period mirrored those outlined in the anti-tyrosinase inhibition method. The maximum initial velocity (V₀) was determined from the linear phase of absorbance measurements taken over 5 min following the addition of the enzyme solution. The inhibition mode was further delineated using a Lineweaver–Burk plot, where the reciprocal of velocities (1/V) was plotted against the reciprocal of substrate concentrations utilized.

B16F10 melanoma cells = settings: cited from earlier work
tyrosinase = settings: natural product; cited from earlier work

Row | Compound | EC50 [1] [µM] | IC50 (mushroom tyrosinase) [µM] | Main peak area (HPLC), stability in aqueous solution ([2]; 0 day) [%] | Main peak area (HPLC), stability in aqueous solution ([2]; 2 months) | Main peak area (HPLC), stability in aqueous solution ([2]; 2 day) [%] | Main peak area (HPLC), stability in aqueous solution ([2]; 4 days) [%] | Inhibition mode (mTYR; Lineweaver–Burk plots, versus L-tyrosine) | Ki (mTYR; at 6 μM of 4b) [µM] | Ki (mTYR; at 12 μM of 4b) [µM] | Vmax (mTYR; consistent across 0-12 μM 4b, L-tyrosine 0.1-1 mM) [mM/min] | melting point [°C] | Effect on B16F10 melanoma cells (B16F10 melanoma cells) | Tyrosinase inhibition activity (tyrosinase)
1 | O=C1O[C@H]([C@@H](O)CO)C(O)=C1O [Ascorbic acid, reference compound] | 37.9 ± 0.3 | – | – | – | – | – | – | – | – | – | – | – | –
2 | NC(=S)N/N=C/c1c[nH]c2ccccc12 [Compound 4a, (E)-2-((1H-indol-3-yl)methylene)hydrazine-1-carbothioamide] | – | 7.9 ± 4.07 | 97.61 | 91.27% | 95.84 | 95.76 | – | – | – | – | – | – | –
3 | NC(=S)N/N=C/c1c[nH]c2ccc(F)cc12 [Compound 4b, (E)-2-((5-fluoro-1H-indol-3-yl)methylene)hydrazine-1-carbothioamide] | 544.3 ± 1.5 | 5.9 ± 2.47 | 97.21 | 91.69% | 97.10 | 97.07 | competitive | 0.0568 | 0.0206 | 0.0135 | – | – | –
4 | NC(=S)N/N=C/c1c[nH]c2ccc(Cl)cc12 [Compound 4c, (E)-2-((5-chloro-1H-indol-3-yl)methylene)hydrazine-1-carbothioamide] | 659.2 ± 0.5 | 13.2 ± 1.68 | 96.24 | 91.89% | 96.04 | 95.74 | – | – | – | – | 212 to 214 | – | –
5 | NC(=S)N/N=C/c1c[nH]c2ccc(Br)cc12 [Compound 4d, (E)-2-((5-bromo-1H-indol-3-yl)methylene)hydrazine-1-carbothioamide] | 769 ± 2.6 | 14.9 ± 2.86 | 97.79 | 91.28% | 97.41 | 96.80 | – | – | – | – | 215 to 217 | – | –
6 | COc1ccc2[nH]cc(/C=N/NC(N)=S)c2c1 [Compound 4e, (E)-2-((5-methoxy-1H-indol-3-yl)methylene)hydrazine-1-carbothioamide] | 603.4 ± 1 | 30.1 ± 1.77 | 98.00 | 94.97% | 97.87 | 96.87 | – | – | – | – | – | – | –
7 | CCn1cc(/C=N/NC(N)=S)c2ccccc21 [Compound 4f, (E)-2-((1-ethyl-1H-indol-3-yl)methylene)hydrazine-1-carbothioamide] | > 1000 | 127 ± 2.85 | 97.80 | 92.18% | 96.99 | 96.45 | – | – | – | – | 188 to 190 | – | –
8 | Cn1cc(/C=N/NC(N)=S)c2ccccc21 [Compound 4g, (E)-2-((1-methyl-1H-indol-3-yl)methylene)hydrazine-1-carbothioamide] | 493.5 ± 0.7 | 155.5 ± 1.07 | 97.47 | 95.20% | 94.12 | 94.58 | – | – | – | – | 199 to 201 | – | –
9 | COc1ccc2c(c1)c(/C=N/NC(N)=S)cn2C [Compound 4h, (E)-2-((5-methoxy-1-methyl-1H-indol-3-yl)methylene)hydrazine-1-carbothioamide] | 340.2 ± 3.1 | 163 ± 3.81 | 96.18 | 90.15% | 95.87 | 95.83 | – | – | – | – | 203 to 205 | – | –
10 | Cn1cc(/C=N/NC(N)=S)c2cc(Br)ccc21 [Compound 4i, (E)-2-((5-bromo-1-methyl-1H-indol-3-yl)methylene)hydrazine-1-carbothioamide] | > 1000 | 46.3 ± 3.11 | 90.17 | 65% and 65.06% | 88.52 | 88.22 | – | – | – | – | 220 to 222 | – | –
11 | COC(=O)c1ccc2[nH]cc(/C=N/NC(N)=S)c2c1 [Compound 4j, Methyl(E)-3-((2-carbamothioylhydrazineylidene)methyl)-1H-indole-5-carboxylate] | 275.7 ± 2.7 | 103 ± 2.72 | 97.37 | 90.86% | 97.13 | 96.75 | – | – | – | – | 247 to 249 | – | –
12 | NC(=S)N/N=C/c1c[nH]c2ccc(O)cc12 [Compound 4k, (E)-2-((5-hydroxy-1H-indol-3-yl)methylene)hydrazine-1-carbothioamide] | 24.6 ± 3.7 | 43.3 ± 3.46 | 96.00 | 94.13% | 95.85 | 95.32 | – | – | – | – | 261 to 263 | – | –
13 | O=C(O)Cc1c[nH]c2ccccc12 [indole-3-acetic acid] | – | – | – | – | – | – | – | – | – | – | – | inhibitory effects | –
14 | O=Cc1c[nH]c2ccccc12 [indole-3-carbaldehyde] | – | – | – | – | – | – | – | – | – | – | – | – | significant tyrosinase inhibition activity
15 | O=C(O)c1c[nH]c2ccccc12 [indole-3-carboxylic acid] | – | – | – | – | – | – | – | – | – | – | – | inhibitory effects | –
16 | OCCc1c[nH]c2ccccc12 [indole-3-ethanol] | – | – | – | – | – | – | – | – | – | – | – | – | significant tyrosinase inhibition activity
